From US7534805B2, “Imidazole derivatives, their preparation and their use as medicaments” (Societe de Conseils de Recherches Et d'Applications …, priority 2003, dated 2009)

| SMILES | melting point [°C] |
| --- | --- |
| Brc1ccc(Oc2ccc(-c3c[nH]c(COc4ccccc4)n3)cc2)cc1.O=C(O)C(F)(F)F | 174 to 176 |
| Cl.c1ccc(OCc2nc(-c3ccc(OCCN4CCCCC4)cc3)c[nH]2)cc1 | 227 to 229 |
| CN(C)CCOc1ccc(-c2c[nH]c(COc3ccccc3)n2)cc1.Cl | 206 to 208 |
| O=C(O)C(F)(F)F.O=C(c1ccccc1)c1ccc(-c2c[nH]c(COc3ccccc3)n2)cc1 | < 50 |
| O=C(Nc1ccc(F)cc1)c1ccc(-c2c[nH]c(COc3ccccc3)n2)cc1.O=C(O)C(F)(F)F | 198 to 200 |
| Cl.Nc1cccc(Oc2ccc(-c3c[nH]c(COc4ccccc4)n3)cc2)c1 | > 300 |
| Nc1ccc(Oc2ccc(-c3c[nH]c(COc4ccccc4)n3)cc2)cc1[N+](=O)[O-].O=C(O)C(F)(F)F | 178 to 180 |
| Cl.Nc1ccccc1Oc1ccc(-c2c[nH]c(COc3ccccc3)n2)cc1 | 88 to 89 |
| Cl.NCc1ccc(Oc2ccc(-c3c[nH]c(COc4ccccc4)n3)cc2)cc1 | > 300 |
| Cl.Clc1ccccc1Oc1ccc(-c2c[nH]c(COc3ccccc3)n2)cc1 | 158 to 160 |
| Cl.NCC(=O)Nc1ccc(Oc2ccc(-c3c[nH]c(COc4ccccc4)n3)cc2)cc1 | > 250 |
| O=C(O)C(F)(F)F.c1ccc(OCc2nc(-c3ccc(Oc4ccccc4)cc3)c[nH]2)cc1 | 112 to 114 |
| c1ccc(SCc2nc(-c3ccc(-c4ccccc4)cc3)c[nH]2)cc1 [Example 2, 4-(1,1′-biphenyl-4-yl)-2-[(phenylthio)methyl]-1H-imidazole] | 150 to 152 |
| c1ccc(OCc2nc(-c3ccc(-c4ccccc4)cc3)c[nH]2)cc1 [Example 3, 4-(1,1′-biphenyl-4-yl)-2-(phenoxymethyl)-1H-imidazole] | 185 to 187 |
| Fc1ccc(Oc2ccc(-c3c[nH]c(CSc4ccccc4)n3)cc2)cc1 [Example 4, 4-[4-(4-fluorophenoxy)phenyl]-2-[(phenylthio)methyl]-1H-imidazole] | 108 to 110 |
| Fc1ccc(OCc2nc(-c3ccc(Oc4ccc(F)cc4)cc3)c[nH]2)cc1 [Example 5, 2-[(4-fluorophenoxy)methyl]-4-[4-(4-fluorophenoxy)phenyl]-1H-imidazole] | 193 to 195 |
| c1ccc(OCc2nc(-c3ccc(Sc4ccccc4)cc3)c[nH]2)cc1 [Example 6, 2-(phenoxymethyl)-4-[4-(phenylthio)phenyl]-1H-imidazole] | 144 to 146 |
| O=S(=O)(c1ccccc1)c1ccc(-c2c[nH]c(COc3ccccc3)n2)cc1 [Example 7, 2-(phenoxymethyl)-4-[4-(phenylsulphonyl)phenyl]-1H-imidazole] | 192 to 194 |
| Fc1ccccc1COc1ccc(-c2c[nH]c(COc3ccccc3)n2)cc1 [Example 8, 4-{4-[(2-fluorobenzyl)oxy]phenyl}-2-(phenoxymethyl)-1H-imidazole] | 182 to 183 |
| c1ccc(OCc2nc(-c3ccc(-n4ccnc4)cc3)c[nH]2)cc1 [Example 11, 4-[4-(1H-imidazol-1-yl)phenyl]-2-(phenoxymethyl)-1H-imidazole] | 194 to 196 |
| COc1ccc(Oc2ccc(-c3c[nH]c(COc4ccccc4)n3)cc2)cc1 [Example 12, 4-[4-(4-methoxyphenoxy)phenyl]-2-(phenoxymethyl)-1H-imidazole] | 132 to 134 |
| CCCCCCc1ccc(-c2c[nH]c(COc3ccccc3)n2)cc1 [Example 13, 4-(4-hexylphenyl)-2-(phenoxymethyl)-1H-imidazole] | 151 to 153 |
| CCCCOc1ccc(-c2c[nH]c(COc3ccccc3)n2)cc1 [Example 14, 4-(4-butoxyphenyl)-2-(phenoxymethyl)-1H-imidazole] | 179 to 181 |
| O=[N+]([O-])c1ccc(Oc2ccc(-c3c[nH]c(COc4ccccc4)n3)cc2)cc1 [Example 15, 4-[4-(4-nitrophenoxy)phenyl]-2-(phenoxymethyl)-1H-imidazole] | 187 to 189 |
| c1ccc(OCc2nc(-c3ccc(OCCN4CCOCC4)cc3)c[nH]2)cc1 [Example 16, 4-(2-{4-[2-(phenoxymethyl)-1H-imidazol-4-yl]phenoxy}ethyl) morpholine] | 144 to 146 |
| COCCOc1ccc(-c2c[nH]c(COc3ccccc3)n2)cc1 [Example 19, 4-[4-(2-methoxyethoxy)phenyl]-2-(phenoxymethyl)-1H-imidazole] | 159 to 161 |

| SMILES | melting point [°C] |
| --- | --- |
| FC(F)(F)CCCOc1ccc(-c2c[nH]c(COc3ccccc3)n2)cc1 [Example 20, 2-(phenoxymethyl)-4-[4-(4,4,4-trifluorobutoxy)phenyl]-1H-imidazole] | 194 to 196 |
| Cc1[nH]c(COc2ccccc2)nc1-c1ccc(Oc2ccc(F)cc2)cc1 [Example 21, 4-[4-(4-fluorophenoxy)phenyl]-5-methyl-2-(phenoxymethyl)-1H-imidazole] | < 40 |
| O=C(Nc1ccc(-c2c[nH]c(COc3ccccc3)n2)cc1)c1ccc(F)cc1 [Example 22, 4-fluoro-N-{4-[2-(phenoxymethyl)-1H-imidazol-4-yl]phenyl}benzamide] | 224 to 225 |
| N#Cc1ccc(Oc2ccc(-c3c[nH]c(COc4ccccc4)n3)cc2)cc1 [Example 23, 4-{4-[2-(phenoxymethyl)-1H-imidazol-4-yl]phenoxy}benzonitrile] | 179 to 181 |
| CCOC(=O)c1ccc(-c2c[nH]c(COc3ccccc3)n2)cc1 [Example 24, ethyl 4-[2-(phenoxymethyl)-1H-imidazol-4-yl]benzoate] | 133 to 135 |
| CCOC(=O)c1ccc(Oc2ccc(-c3c[nH]c(COc4ccccc4)n3)cc2)cc1 [Example 25, ethyl 4-{4-[2-(phenoxymethyl)-1H-imidazol-4-yl]phenoxy}benzoate] | 100 to 102 |
| CSc1ccc(Oc2ccc(-c3c[nH]c(COc4ccccc4)n3)cc2)cc1 [Example 26, 4-{4-[4-(methylthio)phenoxy]phenyl}-2-(phenoxymethyl)-1H-imidazole] | 122 to 124 |
| CS(=O)(=O)c1ccc(Oc2ccc(-c3c[nH]c(COc4ccccc4)n3)cc2)cc1 [Example 27, 4-{4-[4-(methylsulphonyl)phenoxy]phenyl}-2-(phenoxymethyl)-1H-imidazole] | 143 to 145 |
| O=[N+]([O-])c1cccc(Oc2ccc(-c3c[nH]c(COc4ccccc4)n3)cc2)c1 [Example 31, 4-[4-(3-nitrophenoxy)phenyl]-2-(phenoxymethyl)-1H-imidazole] | 140 to 142 |
| c1ccc(COc2ccc(Oc3ccc(-c4c[nH]c(COc5ccccc5)n4)cc3)cc2)cc1 [Example 33, 4-{4-[4-(benzyloxy)phenoxy]phenyl}-2-(phenoxymethyl)-1H-imidazole] | 134 to 136 |
| Oc1ccc(Oc2ccc(-c3c[nH]c(COc4ccccc4)n3)cc2)cc1 [Example 34, 4-{4-[2-(phenoxymethyl)-1H-imidazol-4-yl]phenoxy}phenol] | 211 to 213 |
| Fc1cccc(Oc2ccc(-c3c[nH]c(COc4ccccc4)n3)cc2)c1 [Example 35, 4-[4-(3-fluorophenoxy)phenyl]-2-(phenoxymethyl)-1H-imidazole] | 177 to 179 |
| N#Cc1cccc(Oc2ccc(-c3c[nH]c(COc4ccccc4)n3)cc2)c1 [Example 39, 3-{4-[2-(phenoxymethyl)-1H-imidazol-4-yl]phenoxy}benzonitrile] | 161 to 163 |
| O=[N+]([O-])c1ccccc1Oc1ccc(-c2c[nH]c(COc3ccccc3)n2)cc1 [Example 40, 4-[4-(2-nitrophenoxy)phenyl]-2-(phenoxymethyl)-1H-imidazole] | 128 to 129 |
| Brc1cccc(Oc2ccc(-c3c[nH]c(COc4ccccc4)n3)cc2)c1 [Example 44, 4-[4-(3-bromophenoxy)phenyl]-2-(phenoxymethyl)-1H-imidazole] | 133 to 135 |
| Clc1cccc(Oc2ccc(-c3c[nH]c(COc4ccccc4)n3)cc2)c1 [Example 46, 4-[4-(3-chlorophenoxy)phenyl]-2-(phenoxymethyl)-1H-imidazole] | 146 to 148 |
| Fc1cc(F)cc(Oc2ccc(-c3c[nH]c(COc4ccccc4)n3)cc2)c1 [Example 47, 4-[4-(3,5-difluorophenoxy)phenyl]-2-(phenoxymethyl)-1H-imidazole] | 160 to 161 |
| c1ccc(Cc2ccc(-c3c[nH]c(COc4ccccc4)n3)cc2)cc1 [Example 48, 4-(4-benzylphenyl)-2-(phenoxymethyl)-1H-imidazole] | 147 to 148 |
| Cc1cccc(Oc2ccc(-c3c[nH]c(COc4ccccc4)n3)cc2)c1 [Example 49, 4-[4-(3-methylphenoxy)phenyl]-2-(phenoxymethyl)-1H-imidazole] | 160 to 162 |
| Fc1ccccc1Oc1ccc(-c2c[nH]c(COc3ccccc3)n2)cc1 [Example 51, 4-[4-(2-fluorophenoxy)phenyl]-2-(phenoxymethyl)-1H-imidazole] | 154 to 156 |
| Fc1ccc(Oc2ccc(-c3c[nH]c(COc4ccccc4)n3)cc2)cc1F [Example 52, 4-[4-(3,4-difluorophenoxy)phenyl]-2-(phenoxymethyl)-1H-imidazole] | 188 to 190 |
| Fc1ccc(F)c(Oc2ccc(-c3c[nH]c(COc4ccccc4)n3)cc2)c1 [Example 54, 4-[4-(2,5-difluorophenoxy)phenyl]-2-(phenoxymethyl)-1H-imidazole] | 128 to 130 |
| Fc1ccc(Oc2ccc(-c3c[nH]c(COc4ccccc4)n3)cc2)c(F)c1 [Example 55, 4-[4-(2,4-difluorophenoxy)phenyl]-2-(phenoxymethyl)-1H-imidazole] | 131 to 133 |
| Fc1cccc(Oc2ccc(-c3c[nH]c(COc4ccccc4)n3)cc2)c1F [Example 56, 4-[4-(2,3-difluorophenoxy)phenyl]-2-(phenoxymethyl)-1H-imidazole] | 127 to 129 |
| Fc1cccc(F)c1Oc1ccc(-c2c[nH]c(COc3ccccc3)n2)cc1 [Example 57, 4-[4-(2,6-difluorophenoxy)phenyl]-2-(phenoxymethyl)-1H-imidazole] | 143 to 145 |
